Reference: ChEMBL document CHEMBL1129930, “Analogues of methotrexate in rheumatoid arthritis. 2. Effects of 5-deazaaminopterin, 5,10-dideazaaminopterin, and analogues on type II collagen-induced arthritis in mice” (J Med Chem, 1997)

What was measured:
[1] = Concentration required to inhibit the growth of chang liver cells.; format: functional; details: Homo sapiens
L1210 = assay: Concentration required to inhibit the growth of L1210 cells.; format: functional, cell-based; details: Mus musculus
Mus musculus [2] = assay: Incidence of disease (mouse type II collagen) was scored as the percentage of animals within each experimental group that exhibited joint or limb inflammation on day 37 at intraperitoneal dose of 1.5 mg/kg; format: functional
Mus musculus [3] = assay: Incidence of disease (mouse type II collagen) was scored as the percentage of animals within each experimental group that exhibited joint or limb inflammation on day 37 at intraperitoneal dose of 3 mg/kg; format: functional
Mus musculus [4] = assay: Incidence of disease (mouse type II collagen) was scored as the percentage of animals within each experimental group that exhibited joint or limb inflammation on day 23 at intraperitoneal dose of 1.5 mg/kg; format: functional
Mus musculus [5] = assay: Incidence of disease (mouse type II collagen) was scored as the percentage of animals within each experimental group that exhibited joint or limb inflammation on day 23 at intraperitoneal dose of 3 mg/kg; format: functional
Mus musculus [6] = assay: Incidence of disease (mouse type II collagen) was scored as the percentage of animals within each experimental group that exhibited joint or limb inflammation on day 23 at intraperitoneal dose of 6 mg/kg; format: functional
Mus musculus [7] = assay: Incidence of disease (mouse type II collagen) was scored as the percentage of animals within each experimental group that exhibited joint or limb inflammation on day 44 at intraperitoneal dose of 1.5 mg/kg; format: functional
Mus musculus [8] = assay: Incidence of disease (mouse type II collagen) was scored as the percentage of animals within each experimental group that exhibited joint or limb inflammation on day 44 at intraperitoneal dose of 3 mg/kg; format: functional
Mus musculus [9] = assay: Incidence of disease (mouse type II collagen) was scored as the percentage of animals within each experimental group that exhibited joint or limb inflammation on day 44 at intraperitoneal dose of 6 mg/kg; format: functional
Mus musculus [10] = assay: Incidence of disease (mouse type II collagen) was scored as the percentage of animals within each experimental group that exhibited joint or limb inflammation on day 30 at intraperitoneal dose of 3 mg/kg; format: functional
Mus musculus [11] = assay: Incidence of disease (mouse type II collagen) was scored as the percentage of animals within each experimental group that exhibited joint or limb inflammation on day 30 at intraperitoneal dose of 6 mg/kg; format: functional
Mus musculus [12] = assay: Incidence of disease (mouse type II collagen) was scored as the percentage of animals within each experimental group that exhibited joint or limb inflammation on day 37 at intraperitoneal dose of 6 mg/kg; format: functional
Mus musculus [13] = assay: Incidence of disease (mouse type II collagen) was scored as the percentage of animals within each experimental group that exhibited joint or limb inflammation on day 30 at intraperitoneal dose of 1.5 mg/kg; format: functional
Mus musculus [14] = assay: Tested for antiinflammatory activity on mouse type II collagen arthritis as Paw swelling of all animals in each group on day 44 at intraperitoneal dose of 1.5 mg/kg; format: functional
Mus musculus [15] = assay: Tested for antiinflammatory activity on mouse type II collagen arthritis as Paw swelling of all animals in each group on day 30 at intraperitoneal dose of 3 mg/kg; format: functional
Mus musculus [16] = assay: Tested for antiinflammatory activity on mouse type II collagen arthritis as Paw swelling of all animals in each group on day 30 at intraperitoneal dose of 6 mg/kg; format: functional
Mus musculus [17] = assay: Tested for antiinflammatory activity on mouse type II collagen arthritis as Paw swelling of all animals in each group on day 23 at intraperitoneal dose of 1.5 mg/kg; format: functional
Mus musculus [18] = assay: Tested for antiinflammatory activity on mouse type II collagen arthritis as Paw swelling of all animals in each group on day 23 at intraperitoneal dose of 3 mg/kg; format: functional
Mus musculus [19] = assay: Tested for antiinflammatory activity on mouse type II collagen arthritis as Paw swelling of all animals in each group on day 23 at intraperitoneal dose of 6 mg/kg; format: functional
Mus musculus [20] = assay: Tested for antiinflammatory activity on mouse type II collagen arthritis as Paw swelling of all animals in each group on day 44 at intraperitoneal dose of 3 mg/kg; format: functional
Mus musculus [21] = assay: Tested for antiinflammatory activity on mouse type II collagen arthritis as Paw swelling of all animals in each group on day 37 at intraperitoneal dose of 3 mg/kg; format: functional
Mus musculus [22] = assay: Tested for antiinflammatory activity on mouse type II collagen arthritis as Paw swelling of all animals in each group on day 37 at intraperitoneal dose of 6 mg/kg; format: functional
Mus musculus [23] = assay: Tested for antiinflammatory activity on mouse type II collagen arthritis as Paw swelling of all animals in each group on day 30 at intraperitoneal dose of 1.5 mg/kg; format: functional
Mus musculus [24] = assay: Tested for antiinflammatory activity on mouse type II collagen arthritis as Paw swelling of all animals in each group on day 37 at intraperitoneal dose of 1.5 mg/kg; format: functional
Mus musculus [25] = assay: Tested for antiinflammatory activity on mouse type II collagen arthritis as Paw swelling of all animals in each group on day 44 at intraperitoneal dose of 6 mg/kg; format: functional
Mus musculus [26] = assay: Incidence of disease (mouse type II collagen) was scored as the percentage of animals within each experimental group that exhibited joint or limb inflammation on day 37 at intraperitoneal dose of 12 mg/kg; format: functional
Mus musculus [27] = assay: Incidence of disease (mouse type II collagen) was scored as the percentage of animals within each experimental group that exhibited joint or limb inflammation on day 23 at intraperitoneal dose of 12 mg/kg; format: functional
Mus musculus [28] = assay: Incidence of disease (mouse type II collagen) was scored as the percentage of animals within each experimental group that exhibited joint or limb inflammation on day 44 at intraperitoneal dose of 12 mg/kg; format: functional
Mus musculus [29] = assay: Incidence of disease (mouse type II collagen) was scored as the percentage of animals within each experimental group that exhibited joint or limb inflammation on day 30 at intraperitoneal dose of 12 mg/kg; format: functional
Mus musculus [30] = assay: Tested for antiinflammatory activity on mouse type II collagen arthritis as Paw swelling of all animals in each group on day 30 at intraperitoneal dose of 12 mg/kg; format: functional
Mus musculus [31] = assay: Tested for antiinflammatory activity on mouse type II collagen arthritis as Paw swelling of all animals in each group on day 23 at intraperitoneal dose of 12 mg/kg; format: functional
Mus musculus [32] = assay: Tested for antiinflammatory activity on mouse type II collagen arthritis as Paw swelling of all animals in each group on day 44 at intraperitoneal dose of 12 mg/kg; format: functional
Mus musculus [33] = assay: Tested for antiinflammatory activity on mouse type II collagen arthritis as Paw swelling of all animals in each group on day 37 at intraperitoneal dose of 12 mg/kg; format: functional

Structure (SMILES)	Animals (Mus musculus [2]) [%]	Animals (Mus musculus [3]) [%]	Animals (Mus musculus [4]) [%]	Animals (Mus musculus [5]) [%]	Animals (Mus musculus [6]) [%]	Animals (Mus musculus [7]) [%]	Animals (Mus musculus [8]) [%]	Animals (Mus musculus [9]) [%]	Animals (Mus musculus [10]) [%]	Animals (Mus musculus [11]) [%]	Animals (Mus musculus [12]) [%]	Animals (Mus musculus [13]) [%]	Paw swelling (Mus musculus [15]) [mm]	Paw swelling (Mus musculus [16]) [mm]	Paw swelling (Mus musculus [18]) [mm]	Paw swelling (Mus musculus [19]) [mm]	Paw swelling (Mus musculus [20]) [mm]	Paw swelling (Mus musculus [21]) [mm]	Paw swelling (Mus musculus [22]) [mm]	Paw swelling (Mus musculus [25]) [mm]	other results
CCC(Cc1cnc2nc(N)nc(N)c2c1)c1ccc(C(=O)NC(CCC(=O)O)C(=O)O)cc1 (stereo not given)	88	100	25	25	12	88	100	100	88	100	88	62	2.43	2.57	2.26	2.2	2.7	2.67	2.8	2.76	IC50 [1]: 12 nM; IC50 (L1210): 75 nM; Paw swelling (Mus musculus [14]): 2.59 mm; Paw swelling (Mus musculus [17]): 2.17 mm; Paw swelling (Mus musculus [23]): 2.31 mm; Paw swelling (Mus musculus [24]): 2.48 mm
C=CCC(Cc1cnc2nc(N)nc(N)c2c1C)c1ccc(C(=O)NC(CCC(=O)O)C(=O)O)cc1 (stereo not given)		88		25	0		88	100	38	25	62		2.24	2.21	2.2	2.15	2.99	2.99	2.66	3.01	IC50 [1]: 11 nM; IC50 (L1210): 9 nM; Animals (Mus musculus [26]): 75%; Animals (Mus musculus [27]): 50%; Animals (Mus musculus [28]): 100%; Animals (Mus musculus [29]): 38%; Paw swelling (Mus musculus [30]): 2.24 mm; Paw swelling (Mus musculus [31]): 2.25 mm; Paw swelling (Mus musculus [32]): 3.15 mm; Paw swelling (Mus musculus [33]): 2.69 mm
CCc1c(CN(C)c2ccc(C(=O)NC(CCC(=O)O)C(=O)O)s2)cnc2nc(N)nc(N)c12 (stereo not given)	38	12	25	0	0	50	88	50	0	0	12	12	2.15	2.13	2.14	2.12	2.45	2.2	2.16	2.32	Paw swelling (Mus musculus [14]): 2.37 mm; Paw swelling (Mus musculus [17]): 2.24 mm; Paw swelling (Mus musculus [23]): 2.2 mm; Paw swelling (Mus musculus [24]): 2.26 mm
C=CCN(Cc1cnc2nc(N)nc(N)c2c1CC)c1ccc(C(=O)NC(CCC(=O)O)C(=O)O)cc1 (stereo not given)	38	57	0	0	0	62	86	88	29	25	50	0	2.27	2.21	2.16	2.15	2.55	2.34	2.28	2.45	Paw swelling (Mus musculus [14]): 2.4 mm; Paw swelling (Mus musculus [17]): 2.14 mm; Paw swelling (Mus musculus [23]): 2.18 mm; Paw swelling (Mus musculus [24]): 2.26 mm
